Measurements taken from US20230255975A1, “METHODS FOR TREATING CANCER WITH COMBINATION THERAPIES” (Celgene Corporation, priority 2020, published 2023).

Key:
Test in all cases: Proliferation assay
Format in all cases: cell-based
[1] = system: AMO1 cell line; conditions: Homo sapiens; Amo1; KRAS146T; p-ERK High; read-out: IC50 (μM) Trametinib
[2] = system: KMS-20 cell line; conditions: KRAS G12S, p-ERK High, read-out: IC50 (μM) Trametinib
Procedure: (§1) Proliferation and viability assays: Cell growth curves were determined by monitoring the viability of cells with Trypan blue exclusion on a Vi-Cell-XR (Becton Dickinson, Franklin Lakes, N.J., USA). Proliferation assays were performed in triplicate at least three times (n=3) using (3H)-thymidine incorporation. All data were plotted and analyzed using GraphPad Prism 7 (GraphPad Software, La Jolla, Calif., USA) software, represented as the mean with an error determined as ±s.d.

[3] = system: MOLP-8 cell line; conditions: Homo sapiens, KRAS K180del, NRAS p.Q61L, p-ERK High, read-out: IC50 (μM) Trametinib
Procedure: as §1

[4] = system: KMM-1 cell line; conditions: NRAS G13D, p-ERK High, read-out: IC50 (μM) Trametinib
Procedure: as §1

[5] = system: KARPAS-620 cell line; conditions: p-ERK High, read-out: IC50 (μM) Trametinib
Procedure: as §1

[6] = system: U266 cell line; conditions: Homo sapiens, U-266, BRAF K601N, p-ERK High, read-out: IC50 (μM) Trametinib
Procedure: as §1

[7] = system: Mc-CAR cell line; conditions: McCAR; WT; p-ERK High; read-out: IC50 (μM) Trametinib
Procedure: as §1
(§2) Proliferation and viability assay. Cell growth curves were determined by monitoring the viability of cells with Trypan blue exclusion on a Vi-Cell-XR (Becton Dickinson, Franklin Lakes, N.J., USA). Cell lines were plated in triplicate in 96-well round-bottom plates with the indicated drug concentrations or knockdown cells. Proliferation assays were performed in triplicate at least three times (n=3) using either the WST-1 tetrazolium salt (Roche Applied Science) reagent used according to the manufacturer's specifications or by (3H)-thymidine incorporation as previously described (Bjorklund et al., Blood Cancer Journal 5, e354, 2015). All data were plotted and analyzed using GraphPad Prism 7 (GraphPad Software, La Jolla, Calif., USA) software, represented as the mean with an error determined as ±s.d.

[8] = system: H929 cell line; conditions: Homo sapiens, NCI-H929, NRAS G13D, p-ERK Medium, read-out: IC50 (μM) Trametinib
Procedure: as §1, §2

CC(=O)Nc1cccc(-n2c(=O)n(C3CC3)c(=O)c3c(Nc4ccc(I)cc4F)n(C)c(=O)c(C)c32)c1 [Trametinib]
IC50 [1]: 0.0012 µM
IC50 [2]: 0.00222 µM
IC50 [3]: 0.0117 µM
IC50 [4]: 0.00169 µM
IC50 [5]: 0.07 nM
IC50 [6]: 0.000353 µM
IC50 [7]: 0.0031 µM
IC50 [8]: 0.00328 µM
